From patent US9394295B2, “Antibacterial homopiperidinyl substituted 3,4-dihydro-1H-[1,8]naphthyridinones” (Janssen Sciences Ireland UC, priority 2011, dated 2016) come the findings set out here.

Usually IC90 stands for the concentration needed for an effect of 90%. For orientation: CC50 means the concentration that lowers cell viability or growth by half. As usually defined, the IC50 is the concentration needed to halve the response being measured. A low value points to inhibition by little substance.

The subject of data set [1] is S. aureus. Kind of data set: Antibacterial susceptibility testing: IC90 determination with 10% human serum (STA + 10% HS). The settings on record: Staphylococcus aureus; S. aureus with human serum at final concentration of 10%; read-out: STA + 10% HS (361.169) IC90. The data set is classed as cell-based. The procedure: (§1) The following bacteria were used: Staphylococcus aureus ATCC 29213, methicillin-resistant Staphylococcus aureus (MRSA) ATCC 700788 and Escherichia coli ATCC 35218. The bacteria used in this study were grown overnight in flasks containing 100 ml Mueller-Hinton broth (Difco cat. nr. 0757-17) in sterile de-ionized water, with shaking, at 37° C. Stocks were store at −70° C. until use.
(§2) Bacteria were incubated on a tryptic soy agar plate containing 5% sheep blood (Becton Dickinson cat. nr. 254053) for 18-24 hours at 35° C. in aerobic conditions (first passage). For the second passage, fresh Mueller-Hinton broth is inoculated with 5-10 colonies and grown overnight at 35° C. until turbidity (reaching log-phase) in aerobic conditions is reached. The bacterial suspension is then adjusted to 0.5 McFarland density and further diluted 1:100 in Mueller Hinton broth medium. This is used as inoculum.
(§3) MIC assays were performed by the broth microdilution method in a 96-well format (flat-bottom microtitre plates) with a final volume of 0.1 ml Mueller Hinton broth containing two-fold serial dilutions of compounds and inoculated with 5×10^5 CFU/ml of bacteria (standard inoculum size according to CLSI guidelines). Inhibitors are typically varied over the range of 63 to 0.49 μM. The final DMSO concentration in the assay was 1.25% (maximum tolerable DMSO concentration=6%). In the assays where the effect of human serum on the activity of the compounds against S. aureus was tested, human serum was added at a final concentration of 10%. The plates were incubated at 35° C. for 16-20 hours. At the end of incubation the bacterial growth was quantified fluorometrically. For this, resazurin was added to all wells and the plates were re-incubated. The incubation time is dependent on the type of bacteria. A change in color from blue to pink indicated the growth of bacteria. The fluorescence was read in computer-controlled fluorometer (Fluoroskan Ascent FL, Labsystems) at an excitation wavelength 540 nm and an emission wavelength of 590 nm. The % growth inhibition achieved by the compounds was calculated according to standard methods. The IC90 (expressed in μg/ml) was defined as the 90% inhibitory concentration for bacterial growth. A panel of reference compounds were simultaneously tested for QC approval.
The results are depicted in the table D2 below (STA+10% HS).

Data set [2] is described as follows: Cytotoxicity MTT assay (TOX HELAM). Type of data set: cell-based. Conditions: human, HelaM cells, read-out: TOX HELAM (222.125) CC50. As for the experimental part: Cytotoxicity of the compounds was evaluated using the MTT assay. Human HelaM cells grown in 96-well plates were exposed to serial dilutions of the tested compounds (final volume of 0.2 ml) and incubated for 72 hours at 37° C. and 5% CO2. Inhibitors are typically varied over the range of 25 to 0.8 μM. The final DMSO concentration in the assay is 0.5%. MTT (3-(4,5-Dimethylthiazol-2-yl)-2,5-diphenyltetrazolium bromide, a tetrazole) was added and reduced to purple formazan only in living cells. Solubilization of the formazan crystals was achieved by adding 100 μl 2-propanol. Cell viability was determined by measuring the absorbance of the reduced formazan, giving a purple color, at 540 nm and 690 nm. The absorbance measured at 690 nm was automatically subtracted from the absorbance at 540 nm, to eliminate the effects of non-specific absorption. The percent cytotoxicity achieved by the compounds was calculated according to standard methods. Cytotoxicity is reported as CC50, the concentration that causes a 50% reduction in cell viability.
The results are depicted in the table D2 below (TOX HELAM).

The subject of data set [3] is Staphylococcus aureus ATCC 29213. Put plainly: Antibacterial susceptibility testing: IC90 determination (STA). Type of data set: cell-based. The settings on record: ATCC29213, S. aureus ATCC 29213, 90% inhibitory concentration for bacterial growth, read-out: STA (361.159) IC90. As for the experimental part: as §1, §2, §3
In data set [4] the target is T1, S. aureus ATCC 29213 FabI (Staphylococcus aureus, UniProt Q6GI75).
T1 sequence (Q6GI75 1-256): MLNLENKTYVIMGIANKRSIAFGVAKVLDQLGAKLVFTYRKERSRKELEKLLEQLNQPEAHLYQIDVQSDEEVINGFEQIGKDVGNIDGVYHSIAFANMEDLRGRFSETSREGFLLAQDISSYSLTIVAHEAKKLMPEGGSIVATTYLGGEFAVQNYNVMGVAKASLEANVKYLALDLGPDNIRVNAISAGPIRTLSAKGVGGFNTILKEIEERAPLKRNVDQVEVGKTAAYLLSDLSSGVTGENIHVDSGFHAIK
Put plainly: Staphylococcus aureus FabI enzyme inhibition assay. Conditions: 30 minutes at room temperature, NADH consumption. The data set is classed as biochemical. As for the experimental part:
FabI enzyme inhibition assays were carried out in half-area, 384-well microtitre plates. Compounds were evaluated in 40-μl assay mixtures containing 100 mM NaADA, pH 6.5 (ADA=N-[2-acetamido]-2iminodiacetic acid), 250 μM crotonoyl-CoA, 625 μM NADH and 50 μg/ml S. aureus ATCC 29213 FabI Inhibitors were typically varied over the range of 50 to 0.39 μM. The reaction mixtures were incubated for 30 minutes at room temperature and the reaction was stopped by adding 200 mM Tris buffer (pH 9.0) to create a pH-shift. The consumption of NADH was monitored by measuring the change in absorbance at […]. By comparing sample readings to those of negative (absence of compound) and positive (absence of enzyme) controls, the percent inhibition of enzymatic activity of the compounds was determined. A best-fit curve is fitted by a minimum of squares method. From this an IC50-value (expressed in μg/ml), resulting in 50% inhibition of enzymatic activity, was obtained.

≈ marks a conversion by molar mass, not a printed value.

Take `Cc1ccc(C)c(C2=CCCN(C(=O)/C=C/c3cnc4c(c3)CCC(=O)N4)CC2)c1` [Co. No. 17]: the results for the IC90 in data set [1] and in data set [3] were 0.72 µg/mL and 0.33 µg/mL (≈ 0.822 µM), respectively. Moreover, in data set [2], the CC50 at 72 h is 4.11 µg/mL (≈ 10.2 µM). Also, half-maximal inhibition in data set [4] (IC50) required 946 nM.

As to `O=C1CCc2cc(/C=C/C(=O)N3CC=C(c4ccc(Cl)cc4)CCC3)cnc2N1` [Co. No. 18], the results for the IC90 in data set [1] and in data set [3] were 5.08 µg/mL and 1.52 µg/mL (≈ 3.73 µM), respectively. Besides, the CC50 at 72 h in data set [2] is 6.85 µg/mL (≈ 16.8 µM). The IC50 in data set [4] was 1420 nM.

With `COc1cccc(C2=CCCN(C(=O)/C=C/c3cnc4c(c3)CCC(=O)N4)CC2)c1` [Co. No. 29], the IC90 in data set [1] was 1.66 µg/mL; in data set [3] it was 0.78 µg/mL (≈ 1.93 µM). In data set [2], the CC50 at 72 h is above 10.6 µg/mL. The compound also gave an IC50 in data set [4] of 2400 nM.

In the case of `O=C1CCc2cc(/C=C/C(=O)N3CC=C(c4ccccc4F)CCC3)cnc2N1` [Co. No. 22], the 90% effect concentration (IC90) is 1.03 µg/mL in data set [1] and 0.59 µg/mL (≈ 1.51 µM) in data set [3]. In data set [2], the CC50 at 72 h came out at 12.5 µg/mL (≈ 32 µM). Also, the IC50 in data set [4] was 664 nM.

Regarding `O=C1CCc2cc(/C=C/C(=O)N3CCCC(n4ccnn4)CC3)cnc2N1` (stereo not shown) [compound 50], in data set [4], the half-inhibitory concentration (IC50) was 2180 nM.

Take `COc1ccccc1C1=CCN(C(=O)/C=C/c2cnc3c(c2)CCC(=O)N3)CCC1` [Co. No. 9]: the concentration for an effect of 90% (IC90) in data set [1] came to 1.48 µg/mL; in data set [3] it was 0.99 µg/mL (≈ 2.45 µM). For the same compound, in data set [2], the CC50 at 72 h was above 10.1 µg/mL. The same compound had a 50% inhibitory concentration (IC50) in data set [4] of 967 nM.

`O=C1CCc2cc(/C=C/C(=O)N3CCCC(Cc4ccccc4)CC3)cnc2N1` (stereo not shown) [Co. No. 3]: the IC90 in data set [1] is 11.2 µg/mL; in data set [3] it was 3.94 µg/mL (≈ 10.1 µM). In data set [2], the CC50 at 72 h was above 9.78 µg/mL. Also, the IC50 in data set [4] is 976 nM.

As for `COc1cccc(C2=CCN(C(=O)/C=C/c3cnc4c(c3)CCC(=O)N4)CCC2)c1` [Co. No. 6], the IC90 in data set [1] was 6.32 µg/mL; in data set [3] it was 3.21 µg/mL (≈ 7.96 µM). Besides, the CC50 at 72 h in data set [2] was above 10.1 µg/mL.

Regarding `O=C1CCc2cc(/C=C/C(=O)N3CCc4ccccc4CC3)cnc2N1` [Co. No. 32], the concentration for an effect of 90% (IC90) in data set [1] came out at 20.2 µg/mL; in data set [3] it was 21.4 µg/mL (≈ 61.7 µM). The cytotoxic concentration (CC50) at 72 h in data set [2] is above 8.73 µg/mL. For the same compound, the IC50 in data set [4] was 1530 nM.

Consider `Cc1ccccc1C1=CCN(C(=O)/C=C/c2cnc3c(c2)CCC(=O)N3)CCC1` [Co. No. 7], for which the values for the concentration for an effect of 90% (IC90) in data set [1] and in data set [3] were 2.97 µg/mL and 1.47 µg/mL (≈ 3.79 µM), respectively. Also, the CC50 at 72 h in data set [2] was above 9.73 µg/mL. It took 1140 nM to reach half-maximal inhibition in data set [4] (IC50).

As to `Cc1ccc(F)cc1C1=CCCN(C(=O)/C=C/c2cnc3c(c2)CCC(=O)N3)CC1` [Co. No. 15], the 90% effect concentration (IC90) came out at 1.02 µg/mL in data set [1] and 0.39 µg/mL (≈ 0.962 µM) in data set [3]. Also, in data set [2], the CC50 at 72 h turned out to be 8.57 µg/mL (≈ 21.1 µM). The same compound gave an IC50 in data set [4] of 789 nM.

For `O=C1CCc2cc(/C=C/C(=O)N3CC=C(c4cccc(Cl)c4)CCC3)cnc2N1` [Co. No. 12], the concentration for an effect of 90% (IC90) in data set [1] was determined as 4.37 µg/mL; in data set [3], 0.71 µg/mL (≈ 1.74 µM). Also, the CC50 at 72 h in data set [2] worked out at 8.23 µg/mL (≈ 20.2 µM). Besides, the IC50 in data set [4] is 1250 nM.

For the compound `O=C1CCc2cc(/C=C/C(=O)N3CC=C(Cc4ccccc4)CCC3)cnc2N1` [Co. No. 5], the results for the IC90 in data set [1] and in data set [3] were 10.9 µg/mL and 4.66 µg/mL (≈ 12 µM), respectively. Further, the CC50 at 72 h in data set [2] is above 9.73 µg/mL.

On to `COc1ccc(C2=CCN(C(=O)/C=C/c3cnc4c(c3)CCC(=O)N4)CCC2)cc1` [Co. No. 25], for which the IC90 in data set [1] was 5.83 µg/mL; in data set [3], 3.06 µg/mL (≈ 7.58 µM). The half-maximal cytotoxic concentration (CC50) at 72 h in data set [2] is above 10.1 µg/mL. The half-inhibitory concentration (IC50) in data set [4] was 2130 nM.

Turning to `COc1ccc(C2=CCCN(C(=O)/C=C/c3cnc4c(c3)CCC(=O)N4)CC2)cc1` [Co. No. 26], the IC90 in data set [1] worked out at 2.86 µg/mL; in data set [3], 1.46 µg/mL (≈ 3.62 µM). The CC50 at 72 h in data set [2] is above 10.1 µg/mL. In data set [4], this compound showed an IC50 of 1660 nM.

Turning to `O=C1CCc2cc(/C=C/C(=O)N3CCC=C(c4ccccc4Cl)CC3)cnc2N1` [Co. No. 21], the IC90 in data set [1] was 0.36 µg/mL; in data set [3] it was below 0.2 µg/mL. The 50% cytotoxic concentration (CC50) at 72 h in data set [2] turned out to be 9.24 µg/mL (≈ 22.7 µM). In addition, half-maximal inhibition in data set [4] (IC50) was put at 932 nM.

In data set [4], `O=C1CCc2cc(/C=C/C(=O)N3CCCC(n4cccn4)CC3)cnc2N1` (stereo not shown) [compound 49] gave a half-inhibitory concentration (IC50) of 4570 nM.

For `O=C1CCc2cc(/C=C/C(=O)N3CC=C(c4ccccc4)CCC3)cnc2N1` [compound 1], the IC50 in data set [4] is 964 nM.
